Measurements as given in patent US6589984B1, “Benzofurylpyrone derivatives” (Teijin Limited, priority 1998, dated 2003).

Each molecule was assayed on Human hepatic cancer cells HepG2 (assay: TG production inhibiting activity (14C-acetic acid incorporation into TG) in HepG2 cells). Conditions: Homo sapiens, HepG2; group criterion, alternatives: IC50 at least 10 μM and less than 100 μM, or at least 5% and less than 30% inhibition at 1 μM, or at least 30% and less than 50% inhibition at 10 μM.
Format: cell-based
How it was run: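 HepG2 cells cultured 6 days in eRDF with 10% bovine serum, then in serum-free eRDF given compound (diluted from 20 mM DMSO stock) plus 14C-acetic acid for one day at 37 °C, 5% CO2. Lipids extracted with hexane/isopropanol 2:1 and separated by TLC; the TG spot was cut out and counted by liquid scintillation.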

| IC50 | SMILES |
| --- | --- |
| 10 to 100 µM | COc1cccc2oc(-c3oc(=O)c(C)c(OC(C)=O)c3C)cc12 [Example 266, 4-acetyloxy-3,5-dimethyl-6-(4-methoxybenzofuran-2-yl)-2H-pyran-2-one] |
| 10 to 100 µM | CC(=O)Oc1c(C)c(-c2cc3ccc(-c4ccco4)cc3o2)oc(=O)c1C [Example 24, 4-acetyloxy-3,5-dimethyl-6-(6-(2-furyl)benzofuran-2-yl)-2H-pyran-2-one] |
| 10 to 100 µM | Cc1c(-c2cc3ccc(O)cc3o2)oc(=O)c(C)c1O [Example 272, 3,5-dimethyl-4-hydroxy-6-(6-hydroxybenzofuran-2-yl)-2H-pyran-2-one] |
| 10 to 100 µM | Cc1c(-c2cc3cc(N(C)C(=O)c4cccnc4)ccc3o2)oc(=O)c(C)c1O [Example 253, 3,5-dimethyl-4-hydroxy-6-(5-(N-methyl-N-(3-pyridylcarbonyl)amino)benzofuran-2-yl)-2H-pyran-2-one] |
| 10 to 100 µM | CC(=O)Oc1c(C)c(-c2cc3cc(C(=O)Nc4ccccc4)ccc3o2)oc(=O)c1C [Example 295, 4-acetyloxy-3,5-dimethyl-6-(5-(phenylcarbamoyl)benzofuran-2-yl)-2H-pyran-2-one] |
| 10 to 100 µM | Cc1c(-c2cc3cc(N(C)C(=O)C(C)C)ccc3o2)oc(=O)c(C)c1O [Example 254, 3,5-dimethyl-4-hydroxy-6-(5-(N-isobutyryl-N-methylamino)benzofuran-2-yl)-2H-pyran-2-one] |
| 10 to 100 µM | COc1ccc(C(=O)Oc2ccc3oc(-c4oc(=O)c(C)c(OC(C)=O)c4C)cc3c2)cc1 [Example 263, 4-acetyloxy-3,5-dimethyl-6-(5-(4-methoxybenzoyloxy)benzofuran-2-yl)-2H-pyran-2-one] |
| 10 to 100 µM | CC(=O)OCCOc1ccc2cc(-c3oc(=O)c(C)c(OC(C)=O)c3C)oc2c1 [Example 280, 4-acetyloxy-6-(6-(2-(acetyloxy)ethoxy)benzofuran-2-yl)-3,5-dimethyl-2H-pyran-2-one] |
| 10 to 100 µM | Cc1c(-c2cc3cc(OCc4ccccc4Cl)ccc3o2)oc(=O)c(C)c1O [Example 240, 6-(5-(2-chlorobenzyloxy)benzofuran-2-yl)-3,5-dimethyl-4-hydroxy-2H-pyran-2-one] |
| 10 to 100 µM | Cc1c(-c2cc3cc(OCC4COC(C)(C)O4)ccc3o2)oc(=O)c(C)c1O (centres unmarked) [Example 183, 3,5-dimethyl-6-(5-(2,2-dimethyl-1,3-dioxolan-4-ylmethoxy)benzofuran-2-yl)-4-hydroxy-2H-pyran-2-one] |
| 10 to 100 µM | Cc1c(-c2cc3cc(O)ccc3o2)oc(=O)c(C)c1O [Example 262, 3,5-dimethyl-4-hydroxy-6-(5-hydroxybenzofuran-2-yl)-2H-pyran-2-one] |
| 10 to 100 µM | C=CCCCCOc1ccc2oc(-c3oc(=O)c(C)c(O)c3C)cc2c1 [Example 191, 3,5-dimethyl-6-(5-(5-hexen-1-yloxy)benzofuran-2-yl)-4-hydroxy-2H-pyran-2-one] |
| 10 to 100 µM | Cc1c(-c2cc3cc(OCc4ccc(C(F)(F)F)cc4)ccc3o2)oc(=O)c(C)c1O [Example 124, 3,5-dimethyl-4-hydroxy-6-(5-(4-(trifluoromethyl)benzyloxy)benzofuran-2-yl)-2H-pyran-2-one] |
| 10 to 100 µM | Cc1c(-c2cc3cccc(OCc4ccccc4)c3o2)oc(=O)c(C)c1O [Example 286, 6-(7-benzyloxybenzofuran-2-yl)-3,5-dimethyl-4-hydroxy-2H-pyran-2-one] |
| 10 to 100 µM | CC(=O)Oc1c(C)c(-c2cc3cc(OC(=O)c4ccccc4)ccc3o2)oc(=O)c1C [Example 296, 4-acetyloxy-6-(5-benzoyloxybenzofuran-2-yl)-3,5-dimethyl-2H-pyran-2-one] |
| 10 to 100 µM | Cc1c(-c2cc3cc(OCc4ccccc4[N+](=O)[O-])ccc3o2)oc(=O)c(C)c1O [Example 230, 3,5-dimethyl-4-hydroxy-6-(5-(2-nitrobenzyloxy)benzofuran-2-yl)-2H-pyran-2-one] |
| 10 to 100 µM | Cc1c(-c2cc3c(OCc4ccccc4)cccc3o2)oc(=O)c(C)c1O [Example 258, 6-(4-benzyloxybenzofuran-2-yl)-3,5-dimethyl-4-hydroxy-2H-pyran-2-one] |

| SMILES | IC50 |
| --- | --- |
| Cc1c(-c2cc3cc(OCC4CCCCN4C(=O)OC(C)(C)C)ccc3o2)oc(=O)c(C)c1O (centres unmarked) [Example 220, 6-(5-(1-t-butoxycarbonylpiperidin-2-ylmethoxy)benzofuran-2-yl)-3,5-dimethyl-4-hydroxy-2H-pyran-2-one] | 10 to 100 µM |

Same assay, conditions: Homo sapiens, HepG2; group criterion, alternatives: IC50 less than 10 μM, or at least 30% inhibition at 1 μM, or at least 50% inhibition at 10 μM

| IC50 | SMILES |
| --- | --- |
| < 10 µM | Cc1c(-c2cc3cc(C(=O)N(C)c4ccncc4)ccc3o2)oc(=O)c(C)c1O [Example 309, 3,5-dimethyl-4-hydroxy-6-(5-(N-methyl-N-(4-pyridyl)carbamoyl)benzofuran-2-yl)-2H-pyran-2-one] |
| < 10 µM | CCc1c(-c2cc3ccccc3o2)oc(=O)c(C)c1O [Example 33, 6-(benzofuran-2-yl)-5-ethyl-4-hydroxy-3-methyl-2H-pyran-2-one] |
| < 10 µM | Cc1c(-c2cc3ccccc3o2)oc(=O)c(C)c1OC(=O)c1ccccc1 [Example 3, 6-(benzofuran-2-yl)-4-benzoyloxy-3,5-dimethyl-2H-pyran-2-one] |
| < 10 µM | COc1ccc(C(=O)Oc2c(C)c(-c3cc4ccccc4o3)oc(=O)c2C)cc1 [Example 30, 6-(benzofuran-2-yl)-3,5-dimethyl-4-(4-methoxybenzoyloxy)-2H-pyran-2-one] |
| < 10 µM | CC(=O)Oc1c(C)c(-c2cc3ccc(OS(=O)(=O)C(F)(F)F)cc3o2)oc(=O)c1C [Example 19, 4-acetyloxy-3 ,5-dimethyl-6-(6-(trifluoromethanesulfonyloxy)benzofuran-2-yl)-2H-pyran-2-one] |
| < 10 µM | CC(=O)Oc1c(C)c(-c2cc3ccc(-c4cccs4)cc3o2)oc(=O)c1C [Example 25, 4-acetyloxy-3,5-dimethyl-6-(6-(2-thienyl)benzofuran-2-yl)-2H-pyran-2-one] |
| < 10 µM | CC(=O)Oc1c(C)c(-c2cc3cccc(OCc4ccccc4)c3o2)oc(=O)c1C [Example 285, 4-acetyloxy-6-(7-benzyloxybenzofuran-2-yl)-3,5-dimethyl-2H-pyran-2-one] |
| < 10 µM | Cc1c(-c2cc3cc(OCc4cccnc4)ccc3o2)oc(=O)c(C)c1O [Example 89, 3,5-dimethyl-4-hydroxy-6-(5-(3-pyridylmethoxy)benzofuran-2-yl)-2H-pyran-2-one] |
| < 10 µM | COC(=O)c1ccc2oc(-c3oc(=O)c(C)c(OC(C)=O)c3C)cc2c1 [Example 259, 4-acetyloxy-3,5-dimethyl-6-(5-(methoxycarbonyl)benzofuran-2-yl)-2H-pyran-2-one] |
| < 10 µM | Cc1c(-c2cc3cc(OCc4ccccc4F)ccc3o2)oc(=O)c(C)c1O [Example 78, 3,5-dimethyl-6-(5-(2-fluorobenzyloxy)benzofuran-2-yl)-4-hydroxy-2H-pyran-2-one] |
| < 10 µM | CC(=O)Oc1c(C)c(-c2cc3cc(OS(=O)(=O)c4ccc(C)cc4)ccc3o2)oc(=O)c1C [Example 274, 4-acetyloxy-3,5-dimethyl-6-(5-p-toluenesulfonyloxybenzofuran-2-yl)-2H-pyran-2-one] |
| < 10 µM | Cc1c(-c2cc3cc(OCc4cccc(C(F)(F)F)c4)ccc3o2)oc(=O)c(C)c1O [Example 122, 3,5-dimethyl-4-hydroxy-6-(5-(3-(trifluoromethyl)benzyloxy)benzofuran-2-yl)-2H-pyran-2-one] |
| < 10 µM | CC(=O)Oc1c(C)c(-c2cc3cc(OCc4sc(Cl)nc4Cl)ccc3o2)oc(=O)c1C [Example 244, 4-acetyloxy-6-(5-(2,4-dichloro-5-thiazolylmethoxy)benzofuran-2-yl)-3,5-dimethyl-2H-pyran-2-one] |
| < 10 µM | COc1ccc(C(=O)Oc2c(C)c(-c3cc4ccccc4o3)oc(=O)c2C)c(OC)c1 [Example 72, 6-(benzofuran-2-yl)-4-(2,4-dimethoxybenzoyloxy)-3,5-dimethyl-2H-pyran-2-one] |
| < 10 µM | Cc1c(-c2cc3cc(OCc4ccccc4)ccc3o2)oc(=O)c(C)c1O [Example 271, 6-(5-benzyloxybenzofuran-2-yl)-3,5-dimethyl-4-hydroxy-2H-pyran-2-one] |
| < 10 µM | Cc1c(-c2cc3cc(N(C)S(=O)(=O)c4ccc(Cl)cc4)ccc3o2)oc(=O)c(C)c1O [Example 297, 6-(5-(N-(4-chlorophenylsulfonyl)-N-methylamino)benzofuran-2-yl)-3,5-dimethyl-4-hydroxy-2H-pyran-2-one] |
| < 10 µM | Cc1c(O)c(C(C)C)c(-c2cc3ccccc3o2)oc1=O [Example 34, 6-(benzofuran-2-yl)-4-hydroxy-5-isopropyl-3-methyl-2H-pyran-2-one] |
| < 10 µM | Cc1c(-c2cc3cc(C(=O)N(C)Cc4ccccc4)ccc3o2)oc(=O)c(C)c1O [Example 308, 6-(5-(N-benzyl-N-methylcarbamoyl)benzofuran-2-yl)-3,5-dimethyl-4-hydroxy-2H-pyran-2-one] |
| < 10 µM | COc1cccc(COc2ccc3oc(-c4oc(=O)c(C)c(O)c4C)cc3c2)c1 [Example 236, 3,5-dimethyl-4-hydroxy-6-(5-(3-methoxybenzyloxy)benzofuran-2-yl)-2H-pyran-2-one] |
| < 10 µM | Cc1c(-c2cc3cc(OCc4ccsc4)ccc3o2)oc(=O)c(C)c1O [Example 246, 3,5-dimethyl-4-hydroxy-6-(5-(3-thienylmethoxy)benzofuran-2-yl)-2H-pyran-2-one] |
| < 10 µM | Cc1c(-c2cc3ccccc3o2)oc(=O)c(C)c1OC(=O)c1cccc(N(C)C)c1 [Example 75, 6-(benzofuran-2-yl)-3,5-dimethyl-4-(3-dimethylaminobenzoyloxy)-2H-pyran-2-one] |
| < 10 µM | CC(=O)Nc1ccc(C(=O)Oc2c(C)c(-c3cc4ccccc4o3)oc(=O)c2C)cc1 [Example 76, 4-(4-(acetylamino)benzoyloxy)-6-(benzofuran-2-yl)-3,5-dimethyl-2H-pyran-2-one] |
| < 10 µM | COc1ccc2cc(-c3oc(=O)c(C)c(O)c3C)oc2c1 [Example 26, 3,5-dimethyl-4-hydroxy-6-(6-methoxybenzofuran-2-yl)-2H-pyran-2-one] |
